Values quoted from earlier work as cited in US10918627B2, “Convergent and enantioselective total synthesis of Communesin analogs” (Massachusetts Institute of Technology, priority 2016, dated 2021).
Converted amounts (≈) assume the structure as drawn.

What was measured:
[1] = system: third instar larvae of silkworms; settings: Hayashi 2004
[2] = system: human leukemia cell lines; settings: array of human leukemia cell lines; Jadulco 2004
[3] = system: brine shrimp Artemia salina; settings: Jadulco 2004
[4] = system: bradycardia caused by astemidazole; settings: at different concentrations, Fan 2015
[5] = Fan 2015
[6] = system: cardiovascular vessels; settings: Fan 2015
[7] = system: mouse P-388 lymphocytic leukemia cells; settings: cultured mouse P-388 lymphocytic leukemia cells; Numata 1993

Molecule	insecticidal activity (comparative, in words) [1]	anti-proliferative activity [2]	LD50 toxicity [3]	mitigative effect on bradycardia [4]	vasculogenetic activity [5]	promotion of the function of cardiovascular vessels [6]	ED50 cytotoxicity [7]	LD50 insecticidal ([1]; oral administration)
C/C=C/C=C/C(=O)N1CC[C@@]23c4ccccc4N[C@@H]4N(C=O)c5cccc6c5[C@@]42CCN([C@@H]13)[C@@H]6[C@H]1OC1(C)C [Compound 6, communesin D]	lower insecticidal activities	moderate anti-proliferative activity	0.57 µg/mL	–	–	–	–	–
CCC[C@H](O)CC(=O)N1CC[C@@]23c4ccccc4N[C@@H]4N(C)c5cccc6c5[C@@]42CCN([C@@H]13)[C@@H]6[C@H]1OC1(C)C [Compound 9, communesin I]	–	–	–	significant mitigative effect	moderate vasculogenetic activity	moderately promote	–	–
C/C=C/C=C/C(=O)N1CC[C@@]23c4ccccc4N[C@@H]4Nc5cccc6c5[C@@]42CCN([C@@H]13)[C@@H]6[C@H]1OC1(C)C [Compound 5, communesin C]	–	moderate anti-proliferative activity	1.96 µg/mL	–	–	–	–	–
Communesin E [Compound 3]	lower insecticidal activities	–	–	–	–	–	–	–
CC(=O)N1CC[C@@]23c4ccccc4N[C@@H]4N(C)c5cccc6c5[C@@]42CCN([C@@H]13)[C@@H]6[C@H]1OC1(C)C [Compound 2, Communesin A]	lower insecticidal activities	–	–	significant mitigative effect	moderate vasculogenetic activity	moderately promote	3.5 µg/mL (≈ 7.67 µM)	–
C/C=C/C=C/C(=O)N1CC[C@@]23c4ccccc4N[C@@H]4N(C)c5cccc6c5[C@@]42CCN([C@@H]13)[C@@H]6[C@H]1OC1(C)C [Compound 4, Communesin B]	most active	moderate anti-proliferative activity	0.30 µg/mL	significant mitigative effect	–	–	0.45 µg/mL (≈ 0.885 µM)	5 μg/g of diet
CC(=O)N1CC[C@@]23c4ccccc4N[C@@H]4N(C)c5cccc6c5[C@@]42CCN([C@@H]6C=C(C)C)[C@@H]13 [Compound 1, (−)-Communesin F]	lower insecticidal activities	–	–	–	–	–	–	–
